From patent US7625713B2, “Process for identifying a ligand that binds to the NEP binding site for the SMR1 pentapeptide” (Institut Pasteur, priority 2000, dated 2009)
“Also recorded” adds a separate entry of the source. Where a SMILES comes first, the peptide text is derived from it.

Molecular target: T1, NEP (Rattus norvegicus, UniProt P07861)
T1 construct: incubations of membrane and fresh tissue slice preparations from nervous tissues; from tissue; host or cells: dorsal spinal cord of male Wistar rats (fresh slices or 100 000 x g membrane fraction)
T1 sequence (P07861 1-750): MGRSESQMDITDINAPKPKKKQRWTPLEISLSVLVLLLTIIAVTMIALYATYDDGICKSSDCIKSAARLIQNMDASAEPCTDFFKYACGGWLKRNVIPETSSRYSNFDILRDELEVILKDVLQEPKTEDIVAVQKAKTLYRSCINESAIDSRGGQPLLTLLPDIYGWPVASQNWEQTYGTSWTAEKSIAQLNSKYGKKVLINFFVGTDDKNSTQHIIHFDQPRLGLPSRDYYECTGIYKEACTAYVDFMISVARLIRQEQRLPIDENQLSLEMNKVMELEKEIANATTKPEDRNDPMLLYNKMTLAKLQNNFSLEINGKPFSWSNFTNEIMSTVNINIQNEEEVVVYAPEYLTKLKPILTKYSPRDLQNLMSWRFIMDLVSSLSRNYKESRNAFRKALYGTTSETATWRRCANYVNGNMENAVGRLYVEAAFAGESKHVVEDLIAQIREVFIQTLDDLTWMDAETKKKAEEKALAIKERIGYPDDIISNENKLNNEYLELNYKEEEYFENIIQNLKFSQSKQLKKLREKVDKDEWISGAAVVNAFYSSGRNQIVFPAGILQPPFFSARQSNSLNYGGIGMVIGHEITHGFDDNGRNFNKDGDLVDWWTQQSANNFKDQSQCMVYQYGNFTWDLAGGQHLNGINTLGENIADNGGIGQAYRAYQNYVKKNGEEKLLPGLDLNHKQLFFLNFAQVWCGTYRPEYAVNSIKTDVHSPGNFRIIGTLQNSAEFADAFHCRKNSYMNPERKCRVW
Test: 3H-Substance P hydrolysis by rat spinal cord membrane preparations
Type: biochemical
Procedure: FIG. 1-A: Influence of spinal cord membrane protein concentration on Substance P hydrolysis (25 nM) in the presence or absence of the synthetic NEP inhibitor, Phosphoramidon, 10 μM. Each point represents the percent of 3H-substance P hydrolyzed by spinal cord membrane incubated 15 min. at 30° C. in a 250 μl final volume of Tris/HCl buffer. […] Each point represents the percent of 3H-substance P hydrolyzed by 250 μg membrane proteins incubated at 25° C. in a 250 μl final volume of Tris/HCl buffer. FIG. 3-B: Concentration-dependent inhibition by […] NO: 2) of 3H-Substance P (12.5 nM) catabolism by rat spinal cord membrane preparations. Comparison with-a NEP inhibitor, Phosphoramidon and, -CPB and DPPIV inhibitors, […] inhibitor. Comparison between the inhibitory activity exerted by […] NO: 2) peptide alone or in combination with CPB and DPPIV inhibitors. […] The metabolism rate of the NEP-sensitive peptides was measured using the both NEP substrates involved in the signaling of the nociceptive response: the neuropeptides Met-enkephalin and Substance P. […] The temperature and the time of the incubation as well as the concentration of substrate and of membrane enzyme are defined according to the results such as the NEP hydrolysis activity will be measured under conditions of initial velocity. […] The radioactivity of eluted and isolated compounds is determined by liquid scintillation spectrometry.

**Q.** `N=C(N)NCCC[C@H](NC(=O)[C@@H]1CCCN1C(=O)[C@H](CC(N)=O)NC(=O)[C@H](Cc1c[nH]cn1)NC(=O)[C@@H](N)CCC(N)=O)C(=O)O` [sialorphin, Gln-His-Asn-Pro-Arg] (H-QHNPR-OH; N-terminus and C-terminus assumed) was tested. Which “inhibitory potency / protection of Substance P compared with reference NEP inhibitors” value (peptide alone, listed as SMR1-QHNPR) did it give?
**A.** equivalent t0 that obtained with Phosphoramidon; also recorded: equivalent to that of two well-known NEP-specific inhibitors, Thiorphan and Phosphoramidon

**Q.** What about the “NEP inhibiting activity compared with phosphoramidon” value (peptide combined with the inhibitors of CPB and DPPIV) of the same compound?
**A.** greater than that of phosphoramidon
